This is an account of results in ChEMBL document CHEMBL4261625, “Flexibility of small molecular CD4 mimics as HIV entry inhibitors” (Bioorg Med Chem, 2018).

Data set [1] deals with Human immunodeficiency virus 1. Put plainly: Antiviral activity against HIV1 cYTA48P infected in PM1/CCR5 cells by single round assay. The data set is classed as functional, organism-based. As to conditions: Human immunodeficiency virus 1, cYTA48P.
Data set [2] can be described thus: Cytotoxicity against human PM1 cells harboring CCR5 co-receptor by WST-8 assay. In kind it is cell-based.
For data set [3], the target named is Envelope glycoprotein gp160 (Human immunodeficiency virus 1) (UniProt Q6QLK5). Put plainly: Induction of conformational changes in HIV1 cYTA48P envelope glycoprotein gp120 infected in PM1/CCR5 cells assessed as mean fluorescence intensity using CD4i monoclonal antibody 4C11 at 100 uM after 15 mins by FACS analysis. In kind it is cell-based.
Chain of Envelope glycoprotein gp160 (Human immunodeficiency virus 1) (Q6QLK5 1-814): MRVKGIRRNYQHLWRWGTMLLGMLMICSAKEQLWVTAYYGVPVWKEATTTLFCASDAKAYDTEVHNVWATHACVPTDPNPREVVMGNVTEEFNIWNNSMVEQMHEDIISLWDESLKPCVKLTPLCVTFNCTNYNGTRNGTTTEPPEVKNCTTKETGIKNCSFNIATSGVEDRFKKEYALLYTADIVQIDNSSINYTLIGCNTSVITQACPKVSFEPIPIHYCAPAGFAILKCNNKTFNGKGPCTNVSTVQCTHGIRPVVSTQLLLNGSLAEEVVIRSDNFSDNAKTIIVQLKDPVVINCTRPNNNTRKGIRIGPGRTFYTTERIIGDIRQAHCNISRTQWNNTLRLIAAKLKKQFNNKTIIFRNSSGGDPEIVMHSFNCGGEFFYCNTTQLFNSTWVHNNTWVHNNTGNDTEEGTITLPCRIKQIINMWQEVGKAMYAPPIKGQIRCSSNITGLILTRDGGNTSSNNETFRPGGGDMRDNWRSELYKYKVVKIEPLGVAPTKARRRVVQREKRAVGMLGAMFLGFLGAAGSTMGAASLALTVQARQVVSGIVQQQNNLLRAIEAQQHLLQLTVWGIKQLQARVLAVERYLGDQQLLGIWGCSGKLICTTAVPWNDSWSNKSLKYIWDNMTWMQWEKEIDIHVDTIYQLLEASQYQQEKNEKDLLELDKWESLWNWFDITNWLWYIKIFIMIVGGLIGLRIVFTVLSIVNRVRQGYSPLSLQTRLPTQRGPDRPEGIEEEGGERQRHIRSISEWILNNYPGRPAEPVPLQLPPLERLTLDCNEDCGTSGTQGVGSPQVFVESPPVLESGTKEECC
Data set [4] has the same target. Put plainly: Induction of conformational changes in HIV1 cYTA48P envelope glycoprotein gp120 infected in PM1/CCR5 cells assessed as mean fluorescence intensity using CD4i monoclonal antibody 4C11 at 100 uM after 15 mins by FACS analysis relative to NBD-556. The data set is classed as cell-based.
In data set [5] the test system is Human immunodeficiency virus 1. Put plainly: Antiviral activity against HIV1 cYTA48P infected in PM1/CCR5 cells at 10 uM by single round assay. In kind it is functional.

As for `Cc1cc(C)c2cc(C(=O)NC3CC4(CCCCC4)NC4(CCCCC4)C3)[nH]c2c1` (centres undefined), in data set [1], the half-inhibitory concentration (IC50) was above 100 µM. The compound further returned a CC50 in data set [2] of 9.6 µM. The Flu intensity in data set [3] amounted to 5.27.

`CCOC(=O)C1CCN(C(=O)c2cc3c(F)c(Cl)ccc3[nH]2)CC1` yielded a half-maximal inhibitory concentration (IC50) in data set [1] above 100 µM. Also, the CC50 in data set [2] is above 200 µM. In addition, the Flu intensity in data set [3] was determined as 8.24. Moreover, the fold change (FC) in data set [4] is 0.42.

In data set [1], `CCOC(=O)C1CCN(C(=O)c2cc3c(F)c(Cl)ccc3n2C)CC1` displayed a 50% inhibitory concentration (IC50) above 100 µM. The compound also gave a CC50 in data set [2] above 63.5 µM. In addition, the Flu intensity in data set [3] amounted to 8.63. In data set [4], the fold change (FC) worked out at 0.76.

`Cn1c(C(=O)NC2CC(C)(C)NC(C)(C)C2)cc2c(F)c(Cl)ccc21` yielded a 50% inhibitory concentration (IC50) in data set [1] above 100 µM. Also, the CC50 in data set [2] came to 13.9 µM. In addition, the Flu intensity in data set [3] is 6.74. The Activity in data set [5] was determined as 32%.

In data set [1], `CC1(C)CC(NC(=O)C(=O)Nc2ccc(Cl)cc2)CC(C)(C)N1` showed a half-inhibitory concentration (IC50) of 0.63 µM. The compound further returned a CC50 in data set [2] of 70.4 µM. For the same compound, the Flu intensity in data set [3] is 8.91.

In the case of `O=C(CNc1ccc(Cl)cc1)NC1CC2(CCCCC2)NC2(CCCCC2)C1` (centres undefined), the IC50 in data set [1] came out at 2.2 µM. The compound further had a CC50 in data set [2] above 100 µM. Moreover, the Flu intensity in data set [3] was 19.6.

`CC1(C)CC(NC(=O)c2cc3cc(F)c(Cl)cc3[nH]2)CC(C)(C)N1` gave an IC50 in data set [1] of 88.7 µM. Further, half-maximal cytotoxicity in data set [2] (CC50) was put at 103 µM.

Turning to `Cn1c(C(=O)NC2CC3(CCCCC3)NC3(CCCCC3)C2)cc2cc(F)c(Cl)cc21` (centres undefined), the half-inhibitory concentration (IC50) in data set [1] was above 100 µM. Moreover, the CC50 in data set [2] worked out at 29.4 µM.

In turn, `O=C(NC1CC2(CCCCC2)NC2(CCCCC2)C1)c1cc2ccc(Cl)cc2[nH]1` (centres undefined) came in with a half-maximal inhibitory concentration (IC50) in data set [1] above 100 µM. Besides, half-maximal cytotoxicity in data set [2] (CC50) was put at 10.7 µM. Further, the Activity in data set [5] is 11%.

In data set [1], `CC1(C)CC(NC(=O)CNc2ccc3c(c2)OCO3)CC(C)(C)N1` returned an IC50 above 30 µM. Besides, the Flu intensity in data set [3] was found to be 23.4. The fold change (FC) in data set [4] is 0.073.

Take `O=C(NC1CC2(CCCCC2)NC2(CCCCC2)C1)c1cc2c(F)c(Cl)ccc2[nH]1` (centres undefined): half-maximal inhibition in data set [1] (IC50) was put at 3.6 µM. In addition, the half-maximal cytotoxic concentration (CC50) in data set [2] stood at 11.4 µM. In addition, the Flu intensity in data set [3] was determined as 8.05. Further, in data set [4], the fold change (FC) stood at 0.25.

`CC1(C)CC(NC(=O)c2cc3cc4c(cc3[nH]2)OCO4)CC(C)(C)N1` yielded an IC50 in data set [1] of 23 µM. The Flu intensity in data set [3] came to 30.7. In addition, the fold change (FC) in data set [4] was 0.23.

For `Cn1c(C(=O)NC2CC(C)(C)NC(C)(C)C2)cc2ccc(Cl)cc21`, the half-inhibitory concentration (IC50) in data set [1] was above 100 µM. Moreover, in data set [2], the CC50 turned out to be 33.2 µM. In data set [5], this compound yielded an Activity of 27%.

With `Cn1c(C(=O)NC2CC(C)(C)NC(C)(C)C2)cc2cc(Cl)ccc21`, the IC50 in data set [1] is above 100 µM. The CC50 in data set [2] is 37.5 µM. Further, the Flu intensity in data set [3] is 6.65.

`CC1(C)CC(NC(=O)c2cc3c(F)c(Cl)ccc3[nH]2)CC(C)(C)N1`: in data set [1], the IC50 was above 10 µM. Moreover, half-maximal cytotoxicity in data set [2] (CC50) was put at 19.4 µM. The Flu intensity in data set [3] was 8.55. Besides, in data set [4], the fold change (FC) stood at 0.68. The same compound had an Activity in data set [5] of 32%.

Compound `CCOC(=O)C1CCN(C(=O)c2cc3cc(F)c(Cl)cc3n2C)CC1` returned a half-maximal inhibitory concentration (IC50) in data set [1] above 100 µM. In data set [2], this compound yielded a CC50 of 41.1 µM.

On to `CCOC(=O)C1CCN(C(=O)c2cc3cc4c(cc3[nH]2)OCO4)CC1`, for which the half-maximal inhibitory concentration (IC50) in data set [1] stood at 63 µM. Also, the Flu intensity in data set [3] is 26.2. For the same compound, in data set [4], the fold change (FC) was 0.13.

In data set [1], `Cn1c(C(=O)NC2CC3(CCCCC3)NC3(CCCCC3)C2)cc2ccc(Cl)cc21` (centres undefined) came in with an IC50 above 100 µM. In addition, in data set [2], the cytotoxic concentration (CC50) was 33.9 µM.

Turning to `O=C(CNc1ccc2c(c1)OCO2)NC1CC2(CCCCC2)NC2(CCCCC2)C1` (centres undefined), half-maximal inhibition in data set [1] (IC50) was put at 10.8 µM. Also, the Flu intensity in data set [3] amounted to 28.7. The fold change (FC) in data set [4] was determined as 0.19.

Compound `Cn1c(C(=O)NC2CC(C)(C)NC(C)(C)C2)cc2cc(F)c(Cl)cc21` registered an IC50 in data set [1] above 100 µM. In data set [2], this compound came in with a CC50 of 18.7 µM.

As to `CC1(C)CC(NC(=O)CNc2ccc(Cl)cc2)CC(C)(C)N1`, in data set [1], it took 36.9 µM to reach half-maximal inhibition (IC50). The Flu intensity in data set [3] is 30.2. Besides, the fold change (FC) in data set [4] amounted to 0.22.

The compound `CCOC(=O)C1CCN(C(=O)c2cc3c(C)cc(C)cc3[nH]2)CC1` gave an IC50 in data set [1] above 100 µM. In addition, the CC50 in data set [2] is above 200 µM. Moreover, in data set [3], the Flu intensity is 8.14. The fold change (FC) in data set [4] came out at 0.33.

In data set [1], `Cc1cc(C)c2cc(C(=O)NC3CC(C)(C)NC(C)(C)C3)n(C)c2c1` registered an IC50 above 100 µM. In data set [2], this compound showed a CC50 above 37.5 µM. In addition, in data set [3], the Flu intensity was 7.61.

`O=C(NC1CC2(CCCCC2)NC2(CCCCC2)C1)c1cc2cc(F)c(Cl)cc2[nH]1` (centres undefined) displayed an IC50 in data set [1] above 100 µM. This compound also gave a CC50 in data set [2] of 11.3 µM.

In data set [1], `CC1(C)CC(NC(=O)c2cc3cc(Cl)ccc3[nH]2)CC(C)(C)N1` returned a half-inhibitory concentration (IC50) of 3.65 µM. In data set [2], this compound displayed a half-maximal cytotoxic concentration (CC50) of 48.6 µM. Moreover, the Flu intensity in data set [3] was 8.7. For the same compound, the fold change (FC) in data set [4] worked out at 0.82.

Regarding `CCOC(=O)C1CCN(C(=O)c2cc3cc(F)c(Cl)cc3[nH]2)CC1`, the IC50 in data set [1] is above 100 µM. The compound further gave a CC50 in data set [2] of 121 µM.

In turn, `CCOC(=O)C1CCN(C(=O)CNc2ccc3c(c2)OCO3)CC1` showed a half-inhibitory concentration (IC50) in data set [1] above 100 µM. Moreover, the Flu intensity in data set [3] was 18.5.

`CCOC(=O)C1CCN(C(=O)CNc2ccc(Cl)cc2)CC1`: the half-maximal inhibitory concentration (IC50) in data set [1] is above 100 µM. Further, the Flu intensity in data set [3] was found to be 23.8. The fold change (FC) in data set [4] worked out at 0.081.

Consider `Cn1c(C(=O)NC2CC3(CCCCC3)NC3(CCCCC3)C2)cc2c(F)c(Cl)ccc21` (centres undefined), for which, in data set [1], the IC50 was above 100 µM. For the same compound, in data set [2], the CC50 worked out at 12.3 µM. Also, the Flu intensity in data set [3] stood at 6.45.

The compound `CCOC(=O)C1CCN(C(=O)c2cc3ccc(Cl)cc3n2C)CC1` had a half-maximal inhibitory concentration (IC50) in data set [1] above 100 µM. This compound returned a cytotoxic concentration (CC50) in data set [2] of 78.4 µM.

In data set [1], `O=C(NC1CC2(CCCCC2)NC2(CCCCC2)C1)c1cc2cc3c(cc2[nH]1)OCO3` (centres undefined) yielded an IC50 of 1 µM. In data set [2], this compound registered a CC50 above 100 µM. Moreover, the Flu intensity in data set [3] was found to be 36.4. In addition, the fold change (FC) in data set [4] stood at 0.36.

Take `CCOC(=O)C1CCN(C(=O)c2cc3ccc(Cl)cc3[nH]2)CC1`: in data set [1], the IC50 is above 100 µM. This compound also yielded a half-maximal cytotoxic concentration (CC50) in data set [2] of 52.6 µM.

On to `Cc1cc(C)c2cc(C(=O)NC3CC4(CCCCC4)NC4(CCCCC4)C3)n(C)c2c1` (centres undefined), for which, in data set [1], the 50% inhibitory concentration (IC50) is above 100 µM. The CC50 in data set [2] is above 13.5 µM. In addition, the Flu intensity in data set [3] is 7.96. The fold change (FC) in data set [4] was determined as 0.17.

Regarding `CCOC(=O)C1CCN(C(=O)c2cc3c(C)cc(C)cc3n2C)CC1`, the 50% inhibitory concentration (IC50) in data set [1] was above 100 µM. The compound also displayed a CC50 in data set [2] above 50.2 µM. For the same compound, in data set [3], the Flu intensity was found to be 8.11. In addition, the fold change (FC) in data set [4] is 0.3.

In data set [1], `Cc1cc(C)c2cc(C(=O)NC3CC(C)(C)NC(C)(C)C3)[nH]c2c1` had an IC50 above 100 µM. Half-maximal cytotoxicity in data set [2] (CC50) was put at 60.3 µM. The Flu intensity in data set [3] is 8.08. Moreover, the fold change (FC) in data set [4] came to 0.28.

Compound `CC1(C)CC(NC(=O)c2cc3ccc(Cl)cc3[nH]2)CC(C)(C)N1` gave an IC50 in data set [1] above 100 µM. The compound also had a CC50 in data set [2] of 37.4 µM.
